Results as given in US20140178327A1, “Antimicrobial Ophthalmic Devices” (CooperVision International Holding Company, LP, priority 2012, published 2014).

Columns and labels:
Format in all cases: cell-based
[1] = system: Pseudomonas aeruginosa (PA) ATCC 9027; assay: In vitro bioactivity assay; conditions: for log kill εPLL: Formulation F lens autoclaved in 500 ppm εPLL in PBS
Procedure: (§1) Cultures were prepared from growing a single colony of each of the bacterial species shown in Table 3 below in 50 ml. trypticase soy broth (TSB) overnight at 37° C. on a rotary shaker. 1 ml of each culture was centrifuged, and the bacterial pellet resuspended in 1.0 ml of the diluent shown in Table 3, where PBST is 19 mM PBS at pH 7.3 (0.83 wt. % NaCl, 0.03 wt. % sodium phosphate monobasic, and 0.24% sodium phosphate dibasic) with 0.05% Tween. For each bacterial species, a suspension of approximately 10^8CFU/mL was prepared by diluting the bacterial suspension to achieve the optical density indicated in Table 3.
(§2) Each suspension was further diluted to approximately 10^4CFU/mL (low inoculum) or 10^7CFU/mL (high inoculum) using the above diluents to make the bacterial inoculums for testing bioactivity of lenses.
(§3) Each lens was rinsed in 2.5 ml sterile PBS for a few seconds, and transferred into an individual well of a 24-well plate containing 1.0 ml of bacteria inoculum. The plates were incubated at 37° C. with gentle shaking. The original inoculums were incubated for the duration of the experiment to confirm the concentrations at each sample recovery time point. At the time point tested, each lens was removed from its well and transferred to a well of a 12-well plate containing 2.5 mL of sterile PBST. The plate was gently swirled gently for about 30 seconds. This step was repeated once for each lens. Such 2× wash step is referred to herein as the bacterial wash step.
(§4) Each washed lens was placed in a microcentrifuge tube containing 1 ml of Dey-Engley (DE) neutralizing broth and adhered bacteria were removed by a combination of sonication for about 2 minutes and vortexing for about 10 minutes. Serial dilutions were made for each recovered cell suspension using DE neutralizing broth and suitable dilutions were plated onto TSA. Plates were incubated overnight at 37° C. and CFUs were counted.
(§5) The CFU for each plate was multiplied by the dilution factor (DF) as well as the plating dilution factor (PDF). The total CFUs recovered for a given sample were then converted to the log 10. To calculate the log kill of an antimicrobial lens, the log of CFU/lens of the antimicrobial lens is subtracted from that of the control lens. For example, if the mean log 10 value of an antimicrobial lens is 1.05 and the mean log 10 value of an otherwise identical control lens lacking the active antimicrobial agent is 5.52, the log kill is 5.52−1.05=4.47.

[2] = system: Serratia marcescens (SM) ATCC 6538; assay: In vitro bioactivity assay; conditions: for log kill of SM: ionic silicone hydrogel contact lens with about 10 μg PQ-1 and/or about 200 μg εPLL, 24 hour incubation, 10^7 inoculum; for log kill εPLL: Formulation F lens autoclaved in 500 ppm εPLL in PBS
Procedure: as §1, §2, §3, §4, §5

[3] = system: Staphylococcus aureus (SA) ATCC 13880; assay: In vitro bioactivity assay; conditions: for log kill of SA: ionic silicone hydrogel contact lens with about 10 μg PQ-1 and/or about 200 μg εPLL, 24 hour incubation, 10^7 inoculum; for log kill εPLL: Formulation F lens autoclaved in 500 ppm εPLL in PBS
Procedure: as §1, §2, §3, §4, §5

[4] = system: Pseudomonas aeruginosa (PA) ATCC 9027; assay: In vitro biofilm assay; conditions: for Log εPLL (log CFU recovered per εPLL lens): 10^7 CFU/mL, 2 hours adhesion, 24 hours biofilm growth; for Log Reduction: versus control lens
Procedure: (§6) Lenses at the 0 hour time point and from the 168 hour time point were used to test whether they supported biofilm formation. The lenses were rinsed for 5 seconds in 2.5 mL of sterile PBS then transferred into an individual well of a 24-well plate containing 1.0 mL of bacterial inoculum at approximately 10^7CFU/mL, prepared as described in Example 5. The plates were incubated for 2 hours on a 37° C. with gentle rotary agitation. The remaining inoculum, i.e. not incubated with lenses, was also incubated on the shaker for the duration of each experiment to determine the cfu/mL of the inoculum at t=2 hr and t=24 hr. After 2 hours incubation each lens was washed using the bacterial wash step described in Example 5 then placed on an insert of a 24-well plate for biofilm formation as described below. The inoculum concentration (at t=0 hr and 2 hr) was confirmed by serial dilution, plating onto TSA, incubating overnight at 37° C. and colony counting.
(§7) Custom-made mushroom-shaped stainless steel inserts, depicted in FIG. 1, were placed in each well of a 24-well plate. The cap portion of each insert has a diameter of approximately 14 mm and a curvature to match the posterior surface of a contact lens. The height of each insert is approximately 11 mm. One mL of sterile media/diluent was added to each well. Each preloaded, washed lens (as described above) was placed on the top (cap portion) of an insert, convex side up. The dimensions of the inserts and the volume of the media are such that the periphery of the placed lens is in contact with the media/diluent and the center portion of the lens is at the liquid/air interface. Plates were loosely sealed to prevent evaporation, and incubated for 24 hours at 37° C., with rotary agitation. After incubation, each lens was subjected to the bacterial wash step as described in Example 5. Bacteria were recovered from the washed lenses and log kill calculated as described above in Example 5. Each t-24 hr inoculum concentration was confirmed as described above for t=0 and t=2 hr time points.

[5] = system: Serratia marcescens (SM) ATCC 6538; assay: In vitro biofilm assay; conditions: for Log εPLL (log CFU recovered per εPLL lens): 10^7 CFU/mL, 2 hours adhesion, 24 hours biofilm growth; for Log Reduction: versus control lens
Procedure: as §6, §7

[6] = system: Staphylococcus aureus (SA) ATCC 13880; assay: In vitro biofilm assay; conditions: for Log εPLL (log CFU recovered per εPLL lens): 10^7 CFU/mL, 2 hours adhesion, 24 hours biofilm growth; for Log Reduction: versus control lens
Procedure: as §6, §7

[7] = Formulation F lenses without εPLL, 72 hours in PBS plus PQ-1, high inoculum (10^7), 24-hour incubation
[8] = SM, Formulation F lenses without εPLL, 72 hours in PBS plus PQ-1, high inoculum (10^7), 24-hour incubation
[9] = SA, Formulation F lenses without εPLL, 72 hours in PBS plus PQ-1, high inoculum (10^7), 24-hour incubation
[10] = lenses packaged in PBS containing 30 μg/ml PQ-1

polyquarternium-1 [PQ-1]
log kill 10 μ/ml PQ-1 ([1]; 24 hr, Formulation F lens without εPLL): −0.23 | log kill at 10 μg/ml PQ-1 [1, 7]: −0.23 | log kill at 30 μg/ml PQ-1 [1, 7]: 0.16 | log kill at 100 μg/ml PQ-1 [1, 7]: 3.43 | log kill 10 μ/ml PQ-1 ([2]; SM, 24 hr, Formulation F lens without εPLL): 0.55 | log kill at 10 μg/ml PQ-1 [2, 8]: −0.55 | log kill at 30 μg/ml PQ-1 [2, 8]: 0.55 | log kill at 100 μg/ml PQ-1 [2, 8]: 0.31 | log kill of SM [2]: no significant activity | log kill 10 μ/ml PQ-1 ([3]; SA, 24 hr, Formulation F lens without εPLL): −0.74 | log kill at 10 μg/ml PQ-1 [3, 9]: −0.54 | log kill at 30 μg/ml PQ-1 [3, 9]: 1.47 | log kill at 100 μg/ml PQ-1 [3, 9]: 3.04 | log kill of SA [3]: no significant activity | antimicrobial activity in biofilm assay [4, 10]: lack of antimicrobial activity | antimicrobial activity in biofilm assay [5, 10]: lack of antimicrobial activity

ε-polylysine [εPLL]
log kill εPLL ([1]; 2 hr): 2.63 | log kill εPLL ([1]; 6 hr): 4.04 | log kill εPLL ([1]; 24 hr): ≧4.04 | log kill εPLL ([2]; SM, 2 hr): 0.19 | log kill εPLL ([2]; SM, 6 hr): 0.74 | log kill εPLL ([2]; SM, 24 hr): 1.63 | log kill of SM [2]: ~1.5 log | log kill εPLL ([3]; SA, 2 hr): −0.06 | log kill εPLL ([3]; SA, 6 hr): 0.37 | log kill εPLL ([3]; SA, 24 hr): 1.85 | log kill of SA [3]: ~2 log | Log εPLL (log CFU recovered per εPLL lens) ([4]; 0 hr wash lenses): 0.9 | Log Reduction ([4]; 0 hr wash lenses): 5.0 | Log εPLL (log CFU recovered per εPLL lens) ([4]; 168 hr wash lenses): 0.6 | Log Reduction ([4]; 168 hr wash lenses): 4.9 | Log εPLL (log CFU recovered per εPLL lens) ([5]; 0 hr wash lenses): 1.0 | Log Reduction ([5]; 0 hr wash lenses): 3.5 | Log εPLL (log CFU recovered per εPLL lens) ([5]; 168 hr wash lenses): 3.8 | Log Reduction ([5]; 168 hr wash lenses): 1.7 | Log εPLL (log CFU recovered per εPLL lens) ([6]; 0 hr wash lenses): 0.8 | Log Reduction ([6]; 0 hr wash lenses): 3.7 | Log εPLL (log CFU recovered per εPLL lens) ([6]; 168 hr wash lenses): 3.1 | Log Reduction ([6]; 168 hr wash lenses): 2.4
